Assay results from article PMC9967013, “A Theranostic Small-Molecule Prodrug Conjugate for Neuroendocrine Prostate Cancer” (Pharmaceutics, 2023).
Like-named read-outs stand apart in the source and are kept apart here.

What was measured:
PC3 cells = test: Cell viability assay (MTT); assay type: cell-based, human; conditions: OD 570 nm, read-out: EC50 (cytotoxicity)
Method: PC3 cells (3000–5000 cells/well) were seeded onto a 96-well plate. After one day, freshly prepared RPMI media containing different concentrations (0, 1, 5, 10 µM; n = 5) of FTY720 (Selleckchem, Houston, TX, USA) or compound 10 (0, 1, 3, 15, 30 µM; n = 5) were added to the cells, and the mixtures were incubated for 48 or 72 h. The relative number of viable cells was determined by an assay using 3-(4,5-dimethylthiazol-2-yl) -2,5-diphenyltetrazolium bromide (MTT) (Sigma-Aldrich, Saint-Louis, MO, USA), according to the manufacturer’s instructions, on a microplate reader at OD 570 nm. The experiment was repeated in triplicate, and data were represented as the mean ± standard deviation (s.d).

[1] = test system: SSTR2^high PC3_VC xenografts; test: Small animal PET/CT imaging, tumor uptake in SSTR2^high xenograft; conditions: same mice, i.v. 3–4.4 MBq, 60-min dynamic PET
[2] = test system: SSTR2^low PC3_sgPTP1B xenografts; test: Small animal PET/CT imaging, tumor uptake in SSTR2^low xenograft; conditions: same mice, i.v. 3–4.4 MBq, 60-min dynamic PET
human cathepsin B = biological target: T1, human cathepsin B (Homo sapiens, UniProt P07858); test: In vitro cathepsin-B-mediated release assay; assay type: in vitro ADME; conditions: 37 °C, 1 h
T1 construct: purchased Sino Biological Inc
Method: A comparative cathepsin-B-mediated release assay was performed with compound 13 in the presence vs. absence of human cathepsin B (Sino Biological Inc., Chesterbrook, PA, USA). Briefly, compound 13 (150 µg) was dissolved in 60 µL of 100 mM citrate buffer (pH 5.5), followed by adding 300 µg of cysteine. Then, 20 µg of human cathepsin B in 40 µL of 100 mM citrate buffer was added to the mixture and incubated at 37 °C for 1 h. At the end of the incubation, the solution (20 µL) was sampled for HPLC and LC–MS analysis. Controls of this assay included compound 13 without being exposed to cathepsin B, as well as cathepsin B itself processed under the same conditions.

[3] = test system: SSTR2^high AR42J and SSTR2^low PC3-Flu cells; test: SSTR2-selective cell uptake assay; assay type: cell-based; conditions: 1 h incubation at r.t., binding buffer (20 mM tris, 150 mM NaCl, pH 7.4), ~7.1 × 10^5 CPM, gamma counting, uptake in SSTR2^low cells set at 1, n = 3
SSTR2^high AR42J cells = test: Internalization assay; assay type: cell-based; conditions: after 60 min, ~5 × 10^5 CPM, acid strip (glycine pH 3.0), gamma counting, n = 3

## CCCCCCCCc1ccc(CCC(CO)(CO)NC(=O)OCc2ccc(NC(=O)[C@H](CCCNC(N)=O)NC(=O)[C@@H](NC(=O)CCOCCOCCOCCN=[N+]=[N-])C(C)C)cc2)cc1 [Compound 10, Val-Cit-pABOC-FTY720]
PC3 cells; 48 h incubation
  EC50: > 15 µM
PC3 cells; 72 h incubation
  EC50: > 15 µM

## CCCCCCCCc1ccc(CCC(N)(CO)CO)cc1 [FTY720, fingolimod, reference compound]
PC3 cells; Homo sapiens, PC-3, 48 h incubation
  EC50: ~5 µM
PC3 cells; Homo sapiens, PC-3, 72 h incubation
  EC50: ~5 µM

## O=C([O-])CN(CCN(CC(=O)[O-])Cc1cc(CCC(=O)NCCCCCC(=O)NCCCC[C@H](NC(=O)N[C@@H](CCC(=O)O)C(=O)O)C(=O)O)ccc1[O-])Cc1cc(CCC(=O)O)ccc1[O-].[68Ga+3].[OH3+] [[^68Ga]Ga-PSMA-11]
[1]
  tumor uptake in SSTR2^high PC3-VC tumors (in words): low uptake
[2]
  tumor uptake in SSTR2^low PC3_sgPTP1B tumors (in words): low uptake

## DOTA-PEG3-TZ(PEG4-Octr)-PEG2-Trz-PEG3-Val-Cit-pABOC-FTY720 (disulfide) [Compound 13]
Human cathepsin B; 150 µg compound, 20 µg human cathepsin B, 100 mM citrate buffer pH 5.5, cysteine, HPLC and LC-MS read-out
  cathepsin-B-mediated release of FTY720: cathepsin-B-mediated release of FTY720 was further confirmed
Human cathepsin B; same conditions without cathepsin B: 100 mM citrate buffer pH 5.5, cysteine, LC-MS read-out (FTY720 peak 366.0488 [M + 2H2O + Na]+)
  release of FTY720 in the absence of cathepsin B (control): the peak of 366.0488 was absent

## [^64Cu]Cu-DOTA-PEG3-TZ(PEG4-Octr)-PEG2-Trz-PEG3-Val-Cit-pABOC-FTY720 (disulfide)
[3]
  normalized uptake, accumulation in SSTR2^high AR42J cells relative to SSTR2^low PC3-Flu cells: six-fold higher
SSTR2^high AR42J cells
  internalized percentage (Internalized/Total Bound%): approximately 40%
